Target: HIV-1 reverse transcriptase (RT35A, wild type) (Human immunodeficiency virus type 1 group M subtype B, UniProt P03366)
Experiment: JDAM dual activity monitor RT activity assay
Type: biochemical
Details: for ligand efficiency: LE = -RTln(IC50)/NHA

Compound	ligand efficiency	inhibition (in words) (at 1 mM, JDAM assay)
Oc1ccc(OC(F)(F)F)cc1 [compound 3, 4-(trifluoromethoxy)phenol]	0.37 kcal/mol●NHA	
NCc1ccc(OC(F)(F)F)cc1 [compound 2, 4-(trifluoromethoxy)benzylamine]		no detectable inhibition
CCOC(=O)c1cnn2ccccc12 [compound 1, ethyl pyrazolo[1,5-a]pyridine-3-carboxylate]	0.34 kcal/mol●NHA	
CN(CC(=O)N1CCCc2ccccc21)Cc1nc(=O)c2ccccc2[nH]1 [compound 8, 2-(((2-(3,4-dihydroquinolin-1(2H)-yl)-2-oxoethyl)(methyl)amino)methyl)quinazolin-4(1H)-one]	0.19 kcal/mol●NHA	
